# Experimental data: ChEMBL document CHEMBL1201862, “PubChem BioAssay data set” (2004)
#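 In this assay, cells in 96-well plates receive the compound at five concentrations for 48 hours. Endpoints are linearly interpolated between the surrounding concentrations. GI50 is the concentration that inhibits growth by half.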 Active and inactive are the calls of the source. Rule as the data show it: active = GI50 up to about 1.1 µM and inactive = higher.
# Legend:
# Experiment in all cases: NCI-60 cell line screen, 48 h
# [1] = system: OVCAR-3
# [2] = system: SN12C
# [3] = system: LOX IMVI
# [4] = system: SK-MEL-5
# [5] = system: MCF7
# [6] = system: SF-295
# [7] = system: SK-OV-3
# [8] = system: NCI-H460
# [9] = system: NCI-H23
# [10] = system: SW-620
# [11] = system: SF-268
# [12] = system: U-251
# [13] = system: Malme-3M
# [14] = system: TK-10
# [15] = system: RXF 393
# [16] = system: M14
# [17] = system: K562
# [18] = system: KM12
# [19] = system: NCI-H226
# [20] = system: IGROV-1
SMILES,GI50 [1],GI50 [2],GI50 [3],GI50 [4],GI50 [5],GI50 [6],GI50 [7],GI50 [8],GI50 [9],GI50 [10],GI50 [11],GI50 [12],GI50 [13],GI50 [14],GI50 [15],GI50 [16],GI50 [17],GI50 [18],GI50 [19],GI50 [20]
O=C1c2ccccc2C(=O)N1CC1(C(=O)O)NCCS1(=O)=O (stereo not given),> 100 µM (inactive),> 100 µM (inactive),> 100 µM (inactive),> 100 µM (inactive),> 100 µM (inactive),> 100 µM (inactive),> 100 µM (inactive),> 100 µM (inactive),> 100 µM (inactive),> 100 µM (inactive),> 100 µM (inactive),> 100 µM (inactive),> 100 µM (inactive),> 100 µM (inactive),> 100 µM (inactive),> 100 µM (inactive),> 100 µM (inactive),> 100 µM (inactive),> 100 µM (inactive),> 100 µM (inactive)
CCCCC[C@H]1CC=CC(=O)O1,3.5 µM (inactive),6.68 µM (inactive),4.65 µM (inactive),7.78 µM (inactive),4.89 µM (inactive),10.4 µM (inactive),10.8 µM (inactive),5.35 µM (inactive),17.9 µM (inactive),3.41 µM (inactive),5.38 µM (inactive),8.3 µM (inactive),15.5 µM (inactive),9.48 µM (inactive),2.33 µM (inactive),11.5 µM (inactive),5.48 µM (inactive),3.18 µM (inactive),4.13 µM (inactive),5.27 µM (inactive)
N#Cc1sc2c(c1OC(=O)c1ccc(Cl)cc1)c(=O)n(-c1ccccc1)c(=S)n2-c1ccccc1,17.1 µM (inactive),21 µM (inactive),17.1 µM (inactive),17.1 µM (inactive),23.1 µM (inactive),19.2 µM (inactive),29.9 µM (inactive),16.4 µM (inactive),21.7 µM (inactive),21.2 µM (inactive),23.3 µM (inactive),11.1 µM (inactive),20.4 µM (inactive),23.3 µM (inactive),19.7 µM (inactive),20.4 µM (inactive),22 µM (inactive),14.9 µM (inactive),26.7 µM (inactive),16.7 µM (inactive)
CC(C)(CN1CCCCC1)C(=O)/C=C/c1c(Cl)cccc1Cl,0.955 µM (active),1.49 µM (inactive),0.811 µM (active),1.42 µM (inactive),1.29 µM (inactive),2.64 µM (inactive),2.49 µM (inactive),1.61 µM (inactive),1.35 µM (inactive),0.927 µM (active),1.13 µM (inactive),1.38 µM (inactive),0.489 µM (active),0.627 µM (active),0.701 µM (active),0.863 µM (active),0.736 µM (active),0.867 µM (active),2.65 µM (inactive),0.192 µM (active)
CN(C)CCCNc1c2ccccc2[n+]([O-])c2ccccc12,66.8 µM (inactive),46.1 µM (inactive),31.2 µM (inactive),40.1 µM (inactive),31.6 µM (inactive),54 µM (inactive),82.6 µM (inactive),27.5 µM (inactive),45.7 µM (inactive),39.9 µM (inactive),74.6 µM (inactive),62.8 µM (inactive),76.7 µM (inactive),31.9 µM (inactive),47.8 µM (inactive),> 100 µM (inactive),31.4 µM (inactive),39.3 µM (inactive),22 µM (inactive),37.3 µM (inactive)
C/C=C/C1=C(Cl)C(=O)[C@@H](Cl)[C@@]1(O)C(=O)OC [(+)-CRYPTOSPORIPSIN],2.45 µM (inactive),2.65 µM (inactive),2.24 µM (inactive),5.73 µM (inactive),1.48 µM (inactive),11.2 µM (inactive),15.1 µM (inactive),5.09 µM (inactive),4.08 µM (inactive),1.06 µM (active),10.6 µM (inactive),5.02 µM (inactive),2 µM (inactive),3.13 µM (inactive),2.13 µM (inactive),3.13 µM (inactive),0.869 µM (active),7.13 µM (inactive),10.2 µM (inactive),5.38 µM (inactive)
